Results on 3 molecules are retold here after US20050032096A1, “Methods for predicting drug sensitivity in patients afflicted with hypertension” (deCODE genetics ehf., priority 2003, published 2005).

One data set deals with hypertensive patients. The data set can be described thus: Clinical response to 8 weeks of drug therapy, patients categorized as responders or non-responders. Type of data set: in vivo, human. The note with it: 8 weeks therapy; for patients who demonstrate a clinical response (responders): BP reduced by 10 mm/Hg systole and/or 6 mm/Hg diastole or more.
Excerpt: • a. Hypertension diagnosed by a Cardiologist. The method used to diagnose hypertension is based on the ICE-9 and ICD-10 classification system, and concurs with the diagnostic hypertension criteria outlined by the American Heart Association and includes the following measures: Blood pressure greater than 140 systolic and 90 diastolic (adult person). For this study, individuals will be recruited primarily with moderate to severe hypertension. • b. Patients with hypertension with a severity level that is judged to be appropriate to treatment with Ramace™ were recruited to participate in the study. Study patients signed a consent and donate a blood sample for the study. • c. Phenotype was confirmed by measurement of blood pressure levels at different time points. • d. Age 12-80 years. • e. Both males and females were recruited. • f. White Caucasian (Icelandic hypertensive patient population). • g. Ramace™ therapy for 8 weeks. Examination by a study cardiologist every 3 weeks who confirmed clinical response to Ramace™ therapy. • h. Response to Ramace™: Patients were categorized as either Ramace™ responders or Ramace™ non-responders. […] The same cardiologists examined all 57 patients before and after Ramace™ trial.
All patients recruited were treated with therapeutic doses of Ramace™ for minimum of 8 weeks and examined by the study cardiologist before and after starting the drug. Blood samples were drawn at a similar time (e.g., around 9 AM) in the morning from all patients. The dose of the ACE inhibitor was recorded for all patients, before and 4 weeks after the patient was started on the study drug. No diet restrictions are implemented.
(§1) • a. Hypertension diagnosed by a Cardiologist. The method used to diagnose hypertension is based on the ICE-9 and ICD-10 classification system, and concurs with the diagnostic hypertension criteria outlined by the American Heart Association and includes the following measures: Blood pressure greater than 140 systolic and 90 diastolic (adult person). For this study, individuals will be recruited primarily with moderate to severe hypertension. • b. Patients with hypertension with a severity level that is judged to be appropriate to treatment with Norvasc™ were recruited to participate in the study. Study patients signed a consent and donate a blood sample for the study. • c. Phenotype was confirmed by measurement of blood pressure levels at different time points. • d. Age 12-80 years. • e. Both males and females were recruited. • f. White Caucasian (Icelandic hypertensive patient population). • g. […] Response to Norvasc™: Patients were categorized as either Norvasc™ responders or Norvasc™ non-responders.
Blood samples were drawn at a similar time (e.g., around 9 AM) in the morning from all patients. The dose was recorded for all patients. No diet restrictions were implemented.
as §1, with “Cozaar™” for “Norvasc™”, “Cozaar™:” for “Norvasc™:”

For data set [1], the system named is patients with low renin hypertension. As to conditions: cited from earlier work.
In data set [2] the test system is patients with chronic stable angina. As to conditions: placebo 4.4%, P=NS; cited from earlier work.
The target in a further data set is T1, AT1 receptor (Homo sapiens, UniProt P30556).
T1 sequence (P30556 1-359): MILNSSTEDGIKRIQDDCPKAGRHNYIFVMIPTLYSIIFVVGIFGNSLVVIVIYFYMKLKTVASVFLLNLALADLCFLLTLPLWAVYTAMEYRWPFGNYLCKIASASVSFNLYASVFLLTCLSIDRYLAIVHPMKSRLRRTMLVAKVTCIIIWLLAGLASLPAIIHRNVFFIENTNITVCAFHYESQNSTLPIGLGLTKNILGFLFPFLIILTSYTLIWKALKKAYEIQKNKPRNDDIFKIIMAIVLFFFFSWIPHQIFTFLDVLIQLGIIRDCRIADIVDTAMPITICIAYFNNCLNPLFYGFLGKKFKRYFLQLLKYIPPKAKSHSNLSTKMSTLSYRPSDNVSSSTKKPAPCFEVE
The note with it: cited from earlier work.

The next data set has as its target ACE (Homo sapiens, UniProt P12821). The note with it: cited from earlier work.
The conditions of data set [3]: in vivo; cited from earlier work.

ACE, sequence (P12821 30-1306, species assumed): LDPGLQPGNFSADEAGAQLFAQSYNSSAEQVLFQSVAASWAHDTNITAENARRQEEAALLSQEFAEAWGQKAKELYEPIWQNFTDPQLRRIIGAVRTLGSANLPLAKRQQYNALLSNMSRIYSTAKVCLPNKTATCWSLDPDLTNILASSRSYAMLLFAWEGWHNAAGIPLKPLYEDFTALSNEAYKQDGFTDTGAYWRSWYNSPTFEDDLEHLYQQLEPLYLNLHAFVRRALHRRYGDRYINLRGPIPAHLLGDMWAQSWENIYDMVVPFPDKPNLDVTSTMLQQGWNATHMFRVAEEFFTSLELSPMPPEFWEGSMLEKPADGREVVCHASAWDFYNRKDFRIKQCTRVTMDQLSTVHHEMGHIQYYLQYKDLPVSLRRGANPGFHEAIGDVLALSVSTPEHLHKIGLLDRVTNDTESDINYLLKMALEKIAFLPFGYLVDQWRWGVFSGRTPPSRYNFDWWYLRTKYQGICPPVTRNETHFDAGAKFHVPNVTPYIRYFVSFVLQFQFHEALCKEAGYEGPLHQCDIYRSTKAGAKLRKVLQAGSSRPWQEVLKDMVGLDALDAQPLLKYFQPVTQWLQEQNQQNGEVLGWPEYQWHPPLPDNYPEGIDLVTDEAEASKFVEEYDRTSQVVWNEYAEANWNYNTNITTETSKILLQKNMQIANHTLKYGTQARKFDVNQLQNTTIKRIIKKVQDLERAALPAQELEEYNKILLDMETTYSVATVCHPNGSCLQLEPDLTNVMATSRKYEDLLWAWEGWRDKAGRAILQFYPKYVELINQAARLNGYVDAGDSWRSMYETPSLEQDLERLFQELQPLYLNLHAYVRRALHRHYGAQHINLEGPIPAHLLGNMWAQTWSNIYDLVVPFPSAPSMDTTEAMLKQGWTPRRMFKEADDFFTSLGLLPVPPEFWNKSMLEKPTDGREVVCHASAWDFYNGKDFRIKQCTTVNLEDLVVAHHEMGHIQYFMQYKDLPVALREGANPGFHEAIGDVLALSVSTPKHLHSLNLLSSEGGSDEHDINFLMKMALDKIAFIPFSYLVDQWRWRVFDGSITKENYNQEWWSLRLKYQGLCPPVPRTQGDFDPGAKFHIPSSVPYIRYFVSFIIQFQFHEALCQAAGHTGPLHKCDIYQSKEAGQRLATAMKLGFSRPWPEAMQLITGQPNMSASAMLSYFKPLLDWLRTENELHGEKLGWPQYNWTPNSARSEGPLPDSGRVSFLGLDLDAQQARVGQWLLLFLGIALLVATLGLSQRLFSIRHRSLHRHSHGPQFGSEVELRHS

Turning to `CCOC(=O)[C@H](CCc1ccccc1)N[C@@H](C)C(=O)N1[C@H](C(=O)O)C[C@@H]2CCC[C@@H]21` [Ramace, ramipril], in the data set with hypertensive patients (of 57 hypertensive patients), the non-responders worked out at 22 patients and the “patients who demonstrate a clinical response (responders)” value was found to be 35 patients. In data set [1], the anti-hypertensive effect entry is recorded as “anti-hypertensive”.
As for `CCOC(=O)C1=C(COCCN)NC(C)=C(C(=O)OC)C1c1ccccc1Cl` (centres unmarked) [Norvasc, amlodipine], in data set [2], the “patients who discontinued therapy due to adverse events” value is on record as 2%. In the data set with hypertensive patients (of 65 hypertensive patients), the non-responders amounted to 19 patients and the “patients who demonstrate a clinical response (responders)” value is 46 patients.
For `CCCCc1nc(Cl)c(CO)n1Cc1ccc(-c2ccccc2-c2nn[nH]n2)cc1` [Cozaar, Losartan potassium], the “partial agonist activity at the AT1 receptor” value at AT1 receptor is listed as “do not exhibit any partial agonist activity”. Further, the “inhibition of ACE” value at ACE is listed as “Neither losartan nor its active metabolite inhibits ACE”. Moreover, in the data set on hypertensive patients (of 65 hypertensive patients), the non-responders was 18 patients and the “patients who demonstrate a clinical response (responders)” value was 47 patients. In data set [3], the “time to mean peak serum concentration” value was “one”.
